Laboratory results taken from US20060069132A1, “Azolecarboxamide herbicides” (priority 2004, published 2006).
Like-named read-outs stand apart in the source and are kept apart here.

Key:
[1] = system: giant foxtail; test: Test B pre-/postemergence herbicide test; assay type: in vivo, Setaria faberi; settings: Setaria faberi, 336 h; for pest or weed control at 125 g/ha: 125 g ai/ha; for pest or weed control at 500 g/ha: 500 g ai/ha
Procedure, shortened: (§1)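 Test chemicals in a non-phytotoxic solvent mixture with surfactant were applied preemergence to seeded species and postemergence to plants 2-18 cm tall (1- to 4-leaf stage); rice and barnyardgrass were also tested in a flooded paddy at the 2-leaf stage. Visual rating versus controls after 13-15 days in greenhouse, scale 0 (no effect) to 100 (complete control).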

[2] = system: wheat; test: Test B postemergence herbicide test; assay type: in vivo, Triticum aestivum; settings: Postemergence, 500 g ai/ha; visual rating after 13 to 15 days, scale 0 (no effect) to 100 (complete control)
Procedure, shortened: (§2)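 Formulated test chemicals went onto postemergence plants measuring 2 to 18 cm, at one to four leaves. For the paddy assay, species had reached two leaves. Scoring took place 13–15 days later by eye, relative to untreated plants, using 0 for no effect up to 100 for full control.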

[3] = system: corn; test: Test B pre-/postemergence herbicide test; assay type: in vivo, Zea mays; settings: Zea mays
Procedure, shortened: as §1

[4] = system: morningglory; test: Test B pre-/postemergence herbicide test; assay type: in vivo, Ipomoea coccinea; settings: Ipomoea, 336 h; for pest or weed control at 125 g/ha: 125 g ai/ha; for pest or weed control at 500 g/ha: 500 g ai/ha
Procedure, shortened: (§3)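 Response was scored visually 13 to 15 days after treatment against untreated greenhouse controls, 0 meaning no effect and 100 complete control. Formulations (solvent mixture plus surfactant) went onto soil after planting, onto foliage of 1- to 4-leaf plants, and onto 2-leaf plants in a flooded paddy set including rice and barnyardgrass.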

[5] = system: barnyardgrass; test: Test B flooded paddy test; assay type: in vivo, Echinochloa crus-galli; settings: Echinochloa crus-galli, 336 h, 1000 g ai/ha, visual rating, scale 0 to 100 (0 no effect, 100 complete control), 13 to 15 days, read-out: Barnyardgrass plant response rating
Procedure, shortened: (§4)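 Visual control ratings, 0–100 versus untreated controls, taken after 13 to 15 days in the greenhouse. Blackgrass received a postemergence spray at the 1- to 4-leaf stage (2–18 cm); ducksalad, umbrella sedge and barnyardgrass were flooded-paddy treated at 2 leaves.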

[6] = system: ducksalad; test: Test B flooded paddy test; assay type: in vivo, Heteranthera limosa; settings: Heteranthera limosa, 336 h, 1000 g ai/ha, visual rating, scale 0 to 100 (0 no effect, 100 complete control), 13 to 15 days, read-out: Ducksalad plant response rating
Procedure, shortened: as §4

[7] = system: pigweed; test: Test B pre-/postemergence herbicide test; assay type: in vivo, Amaranthus retroflexus; settings: Amaranthus retroflexus, 336 h; for pest or weed control at 500 g/ha: 500 g ai/ha
Procedure, shortened: as §1

[8] = system: Surinam grass; test: Test B pre-/postemergence herbicide test; assay type: in vivo, Urochloa decumbens; settings: Urochloa decumbens; for pest or weed control at 500 g/ha: 500 g ai/ha
Procedure, shortened: as §1

[9] = system: barnyardgrass; test: Test B pre-/postemergence herbicide test; assay type: in vivo, Echinochloa crus-galli; settings: Echinochloa crus-galli; for pest or weed control at 500 g/ha: 500 g ai/ha
Procedure, shortened: as §3

[10] = system: small flower umbrella sedge; test: Test B flooded paddy test; assay type: in vivo, Cyperus difformis; settings: Cyperus difformis, 336 h, 1000 g ai/ha, visual rating, scale 0 to 100 (0 no effect, 100 complete control), 13 to 15 days, read-out: Sedge, Umbrella plant response rating
Procedure, shortened: as §4

[11] = system: wild oat; test: Test B postemergence herbicide test; assay type: in vivo, Avena fatua; settings: Postemergence, scale 0 (no effect) to 100 (complete control)
Procedure, shortened: as §2

[12] = system: large crabgrass; test: Test B pre-/postemergence herbicide test; assay type: in vivo, Digitaria sanguinalis; settings: Digitaria sanguinalis; for pest or weed control at 500 g/ha: 500 g ai/ha
Procedure, shortened: as §1

[13] = system: velvetleaf; test: Test B pre-/postemergence herbicide test; assay type: in vivo, Abutilon theophrasti; settings: Abutilon theophrasti, 336 h; for pest or weed control at 500 g/ha: 500 g ai/ha
Procedure, shortened: as §1

[14] = system: blackgrass; test: Test B postemergence herbicide test; assay type: in vivo, Alopecurus myosuroides; settings: Postemergence, scale 0 (no effect) to 100 (complete control)
Procedure, shortened: as §4

[15] = system: rice; test: Test B flooded paddy test; assay type: in vivo, Oryza sativa; settings: Oryza sativa, 336 h, 1000 g ai/ha, visual rating, scale 0 to 100 (0 no effect, 100 complete control), 13 to 15 days, read-out: Rice plant response rating
Procedure, shortened: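 Paddy species grown to the 2-leaf stage under flooding; blackgrass sprayed postemergence at 2–18 cm (1- to 4-leaf stage). Plants kept in a greenhouse for 13 to 15 days, then visually rated against controls on 0 (no effect) to 100 (complete control).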

[16] = 500 g ai/ha, visual rating after 13 to 15 days

CCn1nc(C(C)(C)C)cc1C(=O)Nc1cccc(C(=O)NCC(F)(F)F)c1 [Compound 43, 3-(1,1-dimethylethyl)-1-ethyl-N-[3-[[(2,2,2-trifluoroethyl)amino]carbonyl]-phenyl]-1H-pyrazole-5-carboxamide]
pest or weed control at 125 g/ha ([1]; post-emergence, Postemergence, scale 0 (no effect) to 100 (complete control), read-out: Foxtail, Giant plant response rating): 30%
pest or weed control at 500 g/ha ([1]; post-emergence, Postemergence, visual rating after 13 to 15 days, scale 0 (no effect) to 100 (complete control), read-out: Plant response rating, Foxtail, Giant): 50%
pest or weed control at 500 g/ha ([1]; pre-emergence, Preemergence, scale 0 to 100, read-out: Foxtail, Giant plant response rating): 80%
pest or weed control at 125 g/ha ([1]; pre-emergence, preemergence, 0 to 100 scale, 0 is no effect, 100 is complete control, read-out: Plant response rating, Foxtail, Giant): 10%
Plant response rating, Wheat [2]: 30
plant injury at 125 g/ha ([3]; post-emergence, Postemergence, 125 g ai/ha, scale 0 (no effect) to 100 (complete control), read-out: Corn plant response rating): 20%
Corn plant response rating (crop injury, 0 = no effect, 100 = complete kill) at 500 g/ha ([3]; post-emergence, Postemergence, 500 g ai/ha, visual rating after 13 to 15 days, scale 0 (no effect) to 100 (complete control)): 30%
plant injury at 500 g/ha ([3]; pre-emergence, Preemergence, 500 g ai/ha, scale 0 to 100, read-out: Corn plant response rating): 10%
pest or weed control at 125 g/ha ([4]; post-emergence, Postemergence, scale 0 (no effect) to 100 (complete control), read-out: Morningglory plant response rating): 80%
pest or weed control at 500 g/ha ([4]; post-emergence, Postemergence, visual rating after 13 to 15 days, scale 0 (no effect) to 100 (complete control), read-out: Plant response rating, Morningglory): 100%
pest or weed control at 500 g/ha ([4]; pre-emergence, Preemergence, scale 0 to 100, read-out: Morningglory plant response rating): 10%
pest or weed control at 125 g/ha ([4]; pre-emergence, preemergence, 0 to 100 scale, 0 is no effect, 100 is complete control, read-out: Plant response rating, Morningglory): 0%
pest or weed control at 1000 g/ha [5]: 80%
pest or weed control at 1000 g/ha [6]: 70%
pest or weed control at 500 g/ha ([7]; post-emergence, Postemergence, visual rating after 13 to 15 days, scale 0 (no effect) to 100 (complete control), read-out: Plant response rating, Pigweed): 100%
pest or weed control at 500 g/ha ([7]; pre-emergence, Preemergence, scale 0 to 100, read-out: Pigweed plant response rating): 100%
pest or weed control at 125 g/ha ([7]; pre-emergence, preemergence, 125 g ai/ha, 0 to 100 scale, 0 is no effect, 100 is complete control, read-out: Plant response rating, Pigweed): 100%
pest or weed control at 500 g/ha ([8]; post-emergence, Postemergence, visual rating after 13 to 15 days, scale 0 (no effect) to 100 (complete control), read-out: Plant response rating, Surinam Grass): 80%
pest or weed control at 500 g/ha ([8]; pre-emergence, Preemergence, scale 0 to 100, read-out: Surinam Grass plant response rating): 50%
pest or weed control at 125 g/ha ([8]; pre-emergence, preemergence, 125 g ai/ha, 0 to 100 scale, 0 is no effect, 100 is complete control, read-out: Plant response rating, Surinam Grass): 30%
pest or weed control at 125 g/ha ([9]; post-emergence, Postemergence, 125 g ai/ha, scale 0 (no effect) to 100 (complete control), read-out: Barnyardgrass plant response rating): 20%
pest or weed control at 500 g/ha ([9]; post-emergence, Postemergence, visual rating after 13 to 15 days, scale 0 (no effect) to 100 (complete control), read-out: Plant response rating, Barnyardgrass): 70%
pest or weed control at 500 g/ha ([9]; pre-emergence, Preemergence, scale 0 to 100, read-out: Barnyardgrass plant response rating): 100%
pest or weed control at 1000 g/ha [10]: 70%
pest or weed control at 125 g/ha ([11]; Avena fatua, post-emergence, 336 h, 125 g ai/ha, read-out: Oat, Wild plant response rating): 10%
Plant response rating, Oat, Wild [11, 16]: 30
pest or weed control at 125 g/ha ([12]; post-emergence, Postemergence, 125 g ai/ha, scale 0 (no effect) to 100 (complete control), read-out: Crabgrass, Large plant response rating): 90%
pest or weed control at 500 g/ha ([12]; post-emergence, Postemergence, visual rating after 13 to 15 days, scale 0 (no effect) to 100 (complete control), read-out: Plant response rating, Crabgrass, Large): 90%
pest or weed control at 500 g/ha ([12]; pre-emergence, Preemergence, scale 0 to 100, read-out: Crabgrass, Large plant response rating): 100%
pest or weed control at 500 g/ha ([13]; post-emergence, Postemergence, visual rating after 13 to 15 days, scale 0 (no effect) to 100 (complete control), read-out: Plant response rating, Velvetleaf): 90%
pest or weed control at 500 g/ha ([13]; pre-emergence, Preemergence, scale 0 to 100, read-out: Velvetleaf plant response rating): 100%
pest or weed control at 125 g/ha ([13]; pre-emergence, preemergence, 125 g ai/ha, 0 to 100 scale, 0 is no effect, 100 is complete control, read-out: Plant response rating, Velvetleaf): 30%
pest or weed control at 125 g/ha ([14]; Alopecurus myosuroides, post-emergence, 336 h, 125 g ai/ha, read-out: Blackgrass plant response rating): 20%
Plant response rating, Blackgrass [14, 16]: 20
plant injury at 1000 g/ha [15]: 50%
